The results in this text go back to patent publication US10023570B2 (Array BioPharma, Inc., priority 2015, dated 2018).

Molecules are shown by their SMILES. Where “and” joins values, the source holds several entries; their conditions need not be identical. Equal entries are not always repeated. Structures can show the parent of a compound that is named as a salt. Some results are limits rather than exact numbers.

human KDR protein in HEK-293 cells, sequence (P35968 20-1356): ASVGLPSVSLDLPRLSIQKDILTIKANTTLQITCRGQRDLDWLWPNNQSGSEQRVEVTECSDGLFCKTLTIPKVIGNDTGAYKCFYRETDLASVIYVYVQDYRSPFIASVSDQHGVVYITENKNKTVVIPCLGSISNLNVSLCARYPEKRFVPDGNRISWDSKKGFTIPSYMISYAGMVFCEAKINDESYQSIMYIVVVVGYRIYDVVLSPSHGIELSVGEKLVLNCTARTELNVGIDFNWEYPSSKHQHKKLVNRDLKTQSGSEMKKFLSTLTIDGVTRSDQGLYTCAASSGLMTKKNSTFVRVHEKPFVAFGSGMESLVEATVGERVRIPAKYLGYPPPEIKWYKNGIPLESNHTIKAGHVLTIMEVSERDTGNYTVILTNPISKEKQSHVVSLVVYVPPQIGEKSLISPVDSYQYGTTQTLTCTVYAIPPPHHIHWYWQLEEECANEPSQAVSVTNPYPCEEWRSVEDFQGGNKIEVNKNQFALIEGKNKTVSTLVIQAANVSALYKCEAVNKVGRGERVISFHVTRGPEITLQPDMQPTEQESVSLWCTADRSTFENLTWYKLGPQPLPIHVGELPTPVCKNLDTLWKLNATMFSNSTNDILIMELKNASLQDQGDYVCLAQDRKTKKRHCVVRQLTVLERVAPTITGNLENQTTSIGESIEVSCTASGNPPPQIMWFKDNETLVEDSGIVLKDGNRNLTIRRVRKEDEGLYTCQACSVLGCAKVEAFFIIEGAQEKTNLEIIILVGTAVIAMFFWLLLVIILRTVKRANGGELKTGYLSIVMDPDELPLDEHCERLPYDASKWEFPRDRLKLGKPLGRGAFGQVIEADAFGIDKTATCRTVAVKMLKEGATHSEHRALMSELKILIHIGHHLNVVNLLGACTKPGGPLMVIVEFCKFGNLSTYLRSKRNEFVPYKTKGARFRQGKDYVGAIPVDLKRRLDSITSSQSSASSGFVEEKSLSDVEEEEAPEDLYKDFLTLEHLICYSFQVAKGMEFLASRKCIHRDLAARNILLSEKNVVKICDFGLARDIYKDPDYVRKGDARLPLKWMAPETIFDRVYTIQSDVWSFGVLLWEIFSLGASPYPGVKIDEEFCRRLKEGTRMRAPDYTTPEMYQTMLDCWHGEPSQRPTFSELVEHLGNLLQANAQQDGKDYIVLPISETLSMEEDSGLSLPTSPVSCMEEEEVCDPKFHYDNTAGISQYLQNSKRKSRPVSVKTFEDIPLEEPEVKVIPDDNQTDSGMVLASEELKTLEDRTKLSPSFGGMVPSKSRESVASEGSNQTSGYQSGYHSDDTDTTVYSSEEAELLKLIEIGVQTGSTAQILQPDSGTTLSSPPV

In the first experiment the target is human KDR protein in HEK-293 cells (Homo sapiens (Human), UniProt P35968). The experiment can be described thus: KDR Cell Assay (phospho-KDR in HEK-293 cells expressing inducible KDR). In kind it is cell-based. Conditions: pKDR Cell HEK 10% FBS IC50, HEK-293 cells expressing inducible KDR, VEGF stimulated. As to the method:
The cellular potency of a compound inhibiting KDR kinase was determined in HEK-293 cells expressing an inducible human KDR protein. […] The cells were incubated for 1 hour with test compound in DMEM at a final DMSO concentration of 0.25%. […] The media was aspirated and 35 μL of a 1× lysis buffer was added. […] The lysate was stored at −80° C. until ready for assay. Phospho-KDR was measured using a phospho-KDR kit (Catalog #K151BOC) purchased from Meso Scale Diagnostics (Rockville, Md.) according to the manufacturer's instructions. All values are expressed as percent of percent of control (POC). The POC values were fitted to a 4 parameter logistic curve fit and the IC50 value is point where the curve crosses 50 POC.
In turn, `COc1ncc(C(=O)N2C3CC2CN(c2ccc(-c4cc(-c5cnn(C)c5)cn5ncc(C#N)c45)cn2)C3)cc1F` [Example 688, 4-(6-(6-(5-fluoro-6-methoxynicotinoyl)-3,6-diazabicyclo[3.1.1]heptheptan-3-yl)pyridin-3-yl)-6-(1-methyl-1H-pyrazol-4-yl)pyrazolo[1,5-a]pyridine-3-carbonitrile] yielded an IC50 of 50.9 nM.

Take `Cn1cc(-c2cc(-c3ccc(N4CC5(CCN(Cc6ccccc6)CC5)C4)nc3)c3c(C#N)cnn3c2)cn1` [Example 485, 4-(6-(7-benzyl-2,7-diazaspiro[3.5]nonan-2-yl)pyridin-3-yl)-6-(1-methyl-1H-pyrazol-4-yl)pyrazolo[1,5-a]pyridine-3-carbonitrile]: the IC50 was 4800 nM.

Regarding `Cn1cc(-c2cc(-c3ccc(N4CCN(Cc5ccn(C)n5)CC4)nc3)c3c(C#N)cnn3c2)cn1` [Example 439, 4-(6-(4-((1-methyl-1H-pyrazol-3-yl)methyl)piperazin-l-yl)pyridin-3-yl)-6-(1-methyl-1H-pyrazol-4-yl)pyrazolo[1,5-a]pyridine-3-carbonitrile], the IC50 came to 1240 nM.

`Cn1cc(-c2cc(-c3ccc(C4CCN(Cc5ccccc5)C4)nc3)c3c(C#N)cnn3c2)cn1` (stereo not drawn) [Example 582, 4-(6-(1-benzylpyrrolidin-3-yl)pyridine-3-yl)-6-(1-methyl-1H-pyrazol-4-yl)pyrazolo[1,5-a]pyridine-3-carbonitrile] showed a half-maximal inhibitory concentration (IC50) of 561 nM.

The molecule `Cc1ccnc(CN2CCN(c3ccc(-c4cc(-c5cnn(C)c5)cn5ncc(C#N)c45)cn3)CC2)c1` [Example 443, 6-(1-methyl-1H-pyrazol-4-yl)-4-(6-(4-((4-methylpyridin-2-yl)methyl)piperazin-1-yl)pyridine-3-yl)pyrazolo[1,5-a]pyridine-3-carbonitrile] gave an IC50 of 653 nM. This IC50 and that of the molecule before are within 1.5-fold of each other.

The molecule `CN(C)CC(=O)N1CC2(CCN(c3ccc(-c4cc(-c5cnn(C)c5)cn5ncc(C#N)c45)cn3)CC2)C1` [Example 494, 4-(6-(2-(2-(dimethylamino)acetyl)-2,7-diazaspiro[3.5]nonan-7-yl)pyridin-3-yl)-6-(1-methyl-1H-pyrazol-4-yl)pyrazolo[1,5-a]pyridine-3-carbonitrile] had an IC50 of 1830 nM.

Turning to `Cn1cc(-c2cc(-c3ccc(N4CCC(Oc5ccccc5)CC4)nc3)c3c(C#N)cnn3c2)cn1` [Example 508], 2.9 nM corresponded to half-maximal inhibition (IC50).

For the molecule `Cn1cc(-c2cc(-c3ccc(N4CCN(Cc5cncc(Cl)c5)CC4)nc3)c3c(C#N)cnn3c2)cn1` [Example 430, 4-(6-(4-((5-chloropyridin-3-yl)methyl)piperazin-1-yl)pyridin-3-yl)-6-(1-methyl-1H-pyrazol-4-yl)pyrazolo[1,5-a]pyridine-3-carbonitrile], inhibition was half-maximal at 791 nM (IC50).

Molecule `Cn1cc(-c2cc(-c3ccc(N4CCN(CC(F)(F)F)CC4)nc3)c3c(C#N)cnn3c2)cn1` [Example 419, 6-(1-methyl-1H-pyrazol-4-yl)-4-(6-(4-(2,2,2-trifluoroethyl)piperazin-1-yl)pyridin-3-yl)pyrazolo[1,5-a]pyridine-3-carbonitrile] showed an IC50 of 1900 nM. Compared with the last molecule, the IC50 is about 2.4-fold higher.

Take `Cn1cc(-c2cc(-c3ccc(N4CCC(Cc5ccc(Cl)cc5)CC4)nc3)c3c(C#N)cnn3c2)cn1` [Example 536, 4-(6-(4-(4-chlorobenzyl)piperidin-1-yl)pyridin-3-yl)-6-(1-methyl-1H-pyrazol-4-yl)pyrazolo[1,5-a]pyridine-3-carbonitrile]: the IC50 is 787 nM and 656 nM.

`CC(C)C1CCN(C(=O)N2CCN(c3ccc(-c4cc(-c5cnn(C)c5)cn5ncc(C#N)c45)cn3)CC2)C1` (stereo not drawn) [Example 390, 4-(6-(4-(3-isopropylpyrrolidine-1-carbonyl)piperazin-1-yl)pyridin-3-yl)-6-(1-methyl-1H-pyrazol-4-yl)pyrazolo[1,5-a]pyridine-3-carbonitrile] showed an IC50 of 951 nM.

`Cn1cc(-c2cc(-c3ccc(N4CCN(Cc5ccncc5F)CC4)nc3)c3c(C#N)cnn3c2)cn1` [Example 434, 4-(6-(4-((3-fluoropyridin-4-yl)methyl)piperazin-1-yl)pyridin-3-yl)-6-(1-methyl-1H-pyrazol-4-yl)pyrazolo[1,5-a]pyridine-3-carbonitrile] registered an IC50 of 1700 nM.

Still in this experiment, the particulars now being: pKDR Cell HEK 10% FBS IC50, HEK-293 cells expressing inducible KDR, VEGF stimulated, 10% FBS.
With `CC(C)O[C@H]1CCN(C(=O)N2CCN(c3ccc(-c4cc(-c5cnn(C)c5)cn5ncc(C#N)c45)cn3)CC2)C1` [Example 108, (S)-4-(6-(4-(3-isopropoxypyrrolidine-1-carbonyl)piperazin-1-yl)pyridin-3-yl)-6-(1-methyl-1H-pyrazol-4-yl)pyrazolo[1,5-a]pyridine-3-carbonitrile], the IC50 is 531 nM.

`CNS(=O)(=O)N1CCN(c2ccc(-c3cc(-c4cnn(C)c4)cn4ncc(C#N)c34)cc2)CC1` [Example 299, 4-(4-(3-cyano-6-(1-methyl-1H-pyrazol-4-yl)pyrazolo[1,5-a]pyridin-4-yl)phenyl)-N-methylpiperazine-1-sulfonamide] showed an IC50 of 151 nM.

As to `CC(=O)N1CC2(CCN(c3ccc(-c4cc(-c5cnn(C)c5)cn5ncc(C#N)c45)cn3)CC2)C1` [Example 220, 4-(6-(2-acetyl-2,7-diazaspiro[3.5]nonan-7-yl)pyridin-3-yl)-6-(1-methyl-1H-pyrazol-4-yl)pyrazolo[1,5-a]pyridine-3-carbonitrile], the IC50 was 617 nM.

In turn, `Cn1cc(-c2cc(-c3ccc(N4CCN(C(=O)CC5CCOC5)CC4)nc3)c3c(C#N)cnn3c2)cn1` (stereo not drawn) [Example 62, 6-(1-methyl-1H-pyrazol-4-yl)-4-(6-(4-(2-(tetrahydrofuran-3-yl)acetyl)piperazin-1-yl)pyridin-3-yl)pyrazolo[1,5-a]pyridine-3-carbonitrile] showed an IC50 of 1300 nM. This IC50 is about 2.1-fold higher than that of the molecule before.

On to `Cn1cc(-c2cc(-c3ccc(N4CCN(C(=O)C[C@H](N)c5ccccc5)CC4)nc3)c3c(C#N)cnn3c2)cn1` [Example 23, (S)-4-(6-(4-(3-amino-3-phenylpropanoyl)piperazin-1-yl)pyridin-3-yl)-6-(1-methyl-1H-pyrazol-4-yl)pyrazolo[1,5-a]pyridine-3-carbonitrile dihydrochloride], for which the IC50 was determined as 45.4 nM.

For `Cn1cc(-c2cc(-c3ccc(N4CCC(C(=O)N5CCCC5)CC4)nc3)c3c(C#N)cnn3c2)cn1` [Example 248, 6-(1-methyl-1H-pyrazol-4-yl)-4-(6-(4-(pyrrolidine-1-carbonyl)piperidin-1-yl)pyridin-3-yl)pyrazolo[1,5-a]pyridine-3-carbonitrile], the midpoint of inhibition, the IC50, lay at 1240 nM.

In the case of `Cn1cc(-c2cc(-c3ccc(N4CCN(CC(O)c5ccc(F)cc5)CC4)nc3)c3c(C#N)cnn3c2)cn1` (stereo not drawn) [Example 164, 4-(6-(4-(2-(4-fluorophenyl)-2-hydroxyethyl)piperazin-1-yl)pyridin-3-yl)-6-(1-methyl-1H-pyrazol-4-yl)pyrazolo[1,5-a]pyridine-3-carbonitrile], the IC50 was determined as 73.6 nM.

In turn, `Cn1cc(-c2cc(-c3ccc(N4CCN(C(=O)OC(C)(C)C)CC4)cc3)c3c(C#N)cnn3c2)cn1` [Example 290, tert-Butyl 4-(4-(3-cyano-6-(1-methyl-1H-pyrazol-4-yl)pyrazolo[1,5-a]pyridin-4-yl)phenyl)piperazine-1-carboxylate] gave an IC50 of 3440 nM. This IC50 lies about 47-fold higher than the previous one.

Take `CO[C@H]1CCN(C(=O)N2CCN(c3ccc(-c4cc(-c5ccn(C)n5)cn5ncc(C#N)c45)cn3)CC2)C1` [Example 274, (S)-4-(6-(4-(3-methoxypyrrolidine-1-carbonyl)piperazin-1-yl)pyridin-3-yl)-6-(1-methyl-1H-pyrazol-3-yl)pyrazolo[1,5-a]pyridine-3-carbonitrile]: the IC50 is at least 5000 nM.

In turn, `Cn1cc(-c2cc(-c3ccc(N4CCN(C(=O)CC(C)(C)O)C5(CC5)C4)nc3)c3c(C#N)cnn3c2)cn1` [Example 168, 4-(6-(4-(3-hydroxy-3-methylbutanoyl)-4,7-diazaspiro[2.5]octan-7-yl)pyridin-3-yl)-6-(1-methyl-1H-pyrazol-4-yl)pyrazolo[1,5-a]pyridine-3-carbonitrile] showed an IC50 of 1090 nM.

For `Cn1cc(-c2cc(-c3ccc(N4CC5CCC(C4)N5C(=O)OC(C)(C)C)nc3)c3c(C#N)cnn3c2)cn1` [Example 173, tert-butyl 3-(5-(3-cyano-6-(1-methyl-1H-pyrazol-4-yl)pyrazolo[1,5-a]pyridin-4-yl)pyridin-2-yl)-3,8-diazabicyclo[3.2.1]octane-8-carboxylate], the IC50 stood at 1270 nM.

As for `Cn1cc(-c2cc(-c3ccc(N4CCN(C(=O)c5ccccc5)CC4)nc3)c3c(C#N)cnn3c2)cn1` [Example 69, 4-(6-(4-benzoylpiperazin-1-yl)pyridin-3-yl)-6-(1-methyl-1H-pyrazol-4-yl)pyrazolo[1,5-a]pyridine-3-carbonitrile], the IC50 stood at 117 nM.

In turn, `Cn1cc(-c2cc(-c3ccc(N4CCN(C(=O)C5(c6ccc(F)cc6)CC5)CC4)nc3)c3c(C#N)cnn3c2)cn1` [Example 345, 4-(6-(4-(1-(4-fluorophenyl)cyclopropanecarbonyl)piperazin-1-yl)pyridin-3-yl)-6-(1-methyl-1H-pyrazol-4-yl)pyrazolo[1,5-a]pyridine-3-carbonitrile] came in with an IC50 of 305 nM.

For the molecule `Cn1ccc(-c2cc(-c3ccc(N4CCN(C(=O)CC(C)(C)C)CC4)cc3)c3c(C#N)cnn3c2)n1` [Example 309, 4-(4-(4-(3,3-dimethylbutanoyl)piperazin-1-yl)phenyl)-6-(1-methyl-1H-pyrazol-3-yl)pyrazolo[1,5-a]pyridine-3-carbonitrile], the IC50 was found to be 4780 nM.

Take `Cn1cc(-c2cc(-c3ccc(N4CCN(C(=O)NCc5ccccc5)CC4)nc3)c3c(C#N)cnn3c2)cn1` [Example 129, N-benzyl-4-(5-(3-cyano-6-(1-methyl-1H-pyrazol-4-yl)pyrazolo[1,5-a]pyridin-4-yl)pyridin-2-yl)piperazine-1-carboxamide]: the IC50 was 93.5 nM.
